Values quoted from earlier work in patent US20120129696A1, “METHOD FOR INCREASING THE LEVEL OF FREE AMINO ACIDS IN STORAGE TISSUES OF PERENNIAL PLANTS” (priority 2009, published 2012).

Test system: wheat plants

SMILES: COC(=O)N(OC)c1ccccc1COc1ccn(-c2ccc(Cl)cc2)n1 [pyraclostrobin]
- relative content of protein and C/N-ratios, control compared to treated plants: neither the relative content of protein nor C/N-ratios were different
- persistence of enhancement of nitrate reduction (after a single application at rates normally used for fungal control at the field site): 3 nights
- nitrite and ammonia in the leaves following application (rates normally used for fungal control at the field site): accumulated
